Measurements as given in paper PMC11321563, “Enolase inhibitors as therapeutic leads for Naegleria fowleri infection” (PLOS Pathogens, 2024).
“Also recorded” adds a separate entry of the source. Read-outs that look alike come from different tables or passages of the source.

What was measured:
N. fowleri ENO (NfENO) = N. fowleri ENO (NfENO) (Naegleria fowleri, UniProt A0A6A5BXC3); assay: NfENO coupled enzyme activity/inhibition assay (PK/LDH, NADH fluorescence); assay type: biochemical
Description: (§1) ENO was assayed in triplicate using a coupled reaction to measure enzyme activity. Briefly, enzyme (50 nM) in assay buffer (100 mM HEPES, pH 8.0, 3.3 mM MgSO4) was loaded in black 96-well plates with or without inhibitors. To start the reaction, substrate buffer (3.75 mM 2-PG, 1.75 mM ADP, 1 U of pyruvate kinase/lactate dehydrogenase, and 0.4 mM NADH in assay buffer) was added to each well. The rate of reduction in fluorescence (excitation: 360 nm; emission: 460 nm), a measure of NAD production, was then scored on a Biotek Synergy H1 microplate reader every 20 seconds for 4 minutes. Kinetic analyses were performed with Prism 9.0 (GraphPad Software, San Diego, CA) using the Michaelis-Menten model. For assays involving inhibitors, compounds (in DMSO) were incubated at RT with enzyme in assay buffer […] for 15 minutes prior to initiation of the reaction by addition of the substrate. All assays were performed in triplicate with vehicle control (DMSO) included.

[1] = target: human ENO2 (gamma-enolase, HsENO2) (Homo sapiens, UniProt P09104); assay: Human ENO2 coupled enzyme inhibition assay; assay type: biochemical
Description: as §1

[2] = system: N. fowleri strain Nf69 (ATCC 30215) trophozoites; assay: N. fowleri trophozoite viability, CellTiter-Glo, 48 hr; assay type: cell-based, Naegleria fowleri; conditions: for EC50: Naegleria fowleri
Description: N. fowleri strain Nf69 (ATCC 30215) or strain TY (ATCC 30107) trophozoites and N. gruberi strain NEG-M (ATCC 30224) were cultured axenically as previously described. Briefly, parasites were seeded at 1 x 10^4 cells/mL (N. fowleri) or 5 x 10^3 cells/mL (N. gruberi) in 100 μL of the indicated medium in white TC-treated 96-well plates (Thermo Scientific Nunc Microwell 136101). For assays under standard growth conditions ("+ glc"), N. fowleri cells were seeded into Nelson’s Complete Media (NCM, 0.17% liver infusion broth (BD Difco, Franklin Lakes, NJ), 0.17% glucose, 0.012% sodium chloride, 0.0136% potassium phosphate monobasic, 0.0142% sodium phosphate dibasic, 0.0004% calcium chloride, 0.0002% magnesium sulfate, 10% heat-inactivated fetal bovine serum (FBS), 1% penicillin-streptomycin) at 37°C. For assays in modified medium ("-glc/+gly"), cells were seeded into the media without glucose but supplemented with 10 mM glycerol. For standard growth of N. gruberi, cells were seeded into PYNFH-complete media (1.0% peptone, 1.0% yeast extract, 0.1% yeast nucleic acid, 0.0015% folic acid, 0.0001% hemin, 0.0362% potassium phosphate monobasic, 0.05% disodium phosphate, 10% heat-inactivated fetal bovine serum (FBS), 1% penicillin-streptomycin) at 25°C. For determination of EC50 value, concentrations of drug ranging from 0.07826–5 μM were used. After culturing for 48 hr (37°C, 5% CO2 for N. fowleri, 25°C, 5% CO2 for N. gruberi) in the presence of compound or vehicle, plates were equilibrated to RT for 15 min and CellTiter Glo reagent (Promega, Madison, WI, USA) was added followed by orbital shaking for 2 min. After an additional incubation (RT, 10 min), luminescence was scored on a BioTek Synergy H1 mircoplate reader. Parasite density was scored and kinetic analyses were performed with Prism 9.0 (GraphPad Software, San Diego, CA) using the Michaelis-Menten model. All viability assays were performed in technical triplicates with at least three biological replicates.

[3] = HEK-293 cytotoxicity, CellTiter Blue, 48 hr; assay type: cell-based; conditions: human, HEK-293 cells (ATCC CRL-1573); HEK-293, 48 hr; no superscript in Fig 1; read-out: Human cell line CC50
Description: HEK-293 (ATCC CRL-1573) cells were cultured axenically in Dulbecco’s Modified Eagle Medium with 4.5g/L D-glucose, L-glutamine (Gibco 11965) and 10% fetal bovine serum (FBS) at 37°C, 5% CO2. […] After a 48 hr incubation (37°C, 5% CO2), CellTiter Blue reagent (Promega, Madison, WI, USA) was added to each well. After an additional 3-hour incubation (37°C, 5% CO2) with reagent, fluorescence was scored on a a BioTek Synergy H1 mircoplate reader and percent growth inhibition values were solved.

[4] = system: N. fowleri strain Nf69 (ATCC 30215) trophozoites; assay: N. fowleri trophozoite viability, CellTiter-Glo, 48 hr; assay type: cell-based; conditions: Naegleria fowleri, ATCC30215, read-out: EC50 after short exposure
[5] = system: ENO1-rescued glioma and other control cells; design: method as in PMID 33230295; conditions: cited from earlier work
ENO1-/- glioma cells = conditions: read-out: EC50 against ENO1-/- glioma cells; cited from earlier work
[6] = design: method as in PMID 33230295; conditions: rats; cited from earlier work
[7] = system: intracranial orthotopic ENO1-deficient tumors; design: method as in PMID 33230295; conditions: cited from earlier work
[8] = Intranasal dose-finding tolerability in uninfected CD rats; assay type: in vivo, rat; conditions: 1.6, 16, or 120 mg/kg HEX in PBS once daily for five days
N. fowleri trophozoites = assay: Unbiased metabolomics of amoebae after HEX treatment (2DLC-MS); assay type: cell-based, Naegleria fowleri; conditions: cells grown in glycerol, HEX-treated vs untreated
Description: For unbiased metabolomics analyses, N. fowleri trophozoites were grown to near 100% confluency in 6-well TC-treated plates (Thermo Scientific Nunclon Delta Surface 140685). […] Samples were then washed three times in RT PBS prior to the addition of ice-cold CH3CN. Plates were then incubated at –20°C for 20 min, followed by the addition of ice-cold nanopure H2O and removal of the solution to sterile microcentrifuge tubes. This process was repeated twice, and the total volume of extraction material was adjusted to 2.5 x 10^6 cell equivalents per sample. Tubes were stored at –80°C prior to analysis.
Each cell sample was vortexed with glass beads for 5 min in a MM200 Mix Grinder (Retsch USA, Newtown, PA, USA). The mixture was centrifuged at 14,000 rpm for 20 min at 4°C. The supernatant was transferred into a new tube and lyophilized overnight. The dried sample was reconstituted in 60 μL 50% CH3CN and analyzed in random order on a parallel two-dimensional liquid chromatography-mass spectrometry (2DLC-MS) system, a Thermo DIONEX UltiMate 3000 HPLC system (Thermo Fisher Scientific, Waltham, MA, USA) coupled with a Thermo Q Exactive HF Hybrid Quadrupole-Orbitrap Mass Spectrometer (Thermo Fisher Scientific, Waltham, MA, USA). […] Each sample was analyzed by the 2DLC-MS under both positive (+) and negative (–) modes to obtain full MS data for metabolite quantification. […]

Entamoeba histolytica = Entamoeba histolytica growth; assay type: cell-based
Human cell line = conditions: read-out: Human cell line CC50, cited from earlier work
[9] = design: method as in PMID 33230295; conditions: non-human primates, cited from earlier work
[10] = system: N. fowleri strain 69 trophozoites; assay: Rat model of N. fowleri infection, nasal instillation treatment; assay type: in vivo, Naegleria fowleri
Excerpt: Twenty-four CD rats (12 females, 12 males, aged 42–48 days, Charles River) housed in pairs were infected by nasal instillation with 2.5 x 10^5 N. fowleri strain 69 trophozoites that had been isolated after passage through mice to ensure virulence. Rats were provided unlimited food and water throughout the duration of the experiment. The two groups consisted of equal numbers of males and females. […] Rodents were monitored carefully and euthanized when symptoms of infection, including failure to respond to stimuli or seizures, were evident. After 17 days, surviving animals were sacrificed and brains were removed to assess cure.

N. gruberi = N. gruberi growth; assay type: cell-based, Naegleria gruberi
Description: N. fowleri strain Nf69 (ATCC 30215) or strain TY (ATCC 30107) trophozoites and N. gruberi strain NEG-M (ATCC 30224) were cultured axenically as previously described. Briefly, parasites were seeded at 1 x 10^4 cells/mL (N. fowleri) or 5 x 10^3 cells/mL (N. gruberi) in 100 μL of the indicated medium in white TC-treated 96-well plates (Thermo Scientific Nunc Microwell 136101). For assays under standard growth conditions ("+ glc"), N. fowleri cells were seeded into Nelson’s Complete Media (NCM, 0.17% liver infusion broth (BD Difco, Franklin Lakes, NJ), 0.17% glucose, 0.012% sodium chloride, 0.0136% potassium phosphate monobasic, 0.0142% sodium phosphate dibasic, 0.0004% calcium chloride, 0.0002% magnesium sulfate, 10% heat-inactivated fetal bovine serum (FBS), 1% penicillin-streptomycin) at 37°C. For assays in modified medium ("-glc/+gly"), cells were seeded into the media without glucose but supplemented with 10 mM glycerol. […] After an additional incubation (RT, 10 min), luminescence was scored on a BioTek Synergy H1 mircoplate reader. Parasite density was scored and kinetic analyses were performed with Prism 9.0 (GraphPad Software, San Diego, CA) using the Michaelis-Menten model. […]

Balamuthia mandrillaris = Balamuthia mandrillaris growth; assay type: cell-based
[11] = ATCC30215, 48 h, read-out: N. fowleri EC50
[12] = recombinant NfENO, 50 nM enzyme, 15 min preincubation with compound, read-out: NfENO IC50
[13] = 15 min preincubation with compound, read-out: HsENO2 IC50
[14] = value with superscript 3 in Fig 1, footnote not given, ref superscript 3

Sequence of N. fowleri ENO (NfENO) (A0A6A5BXC3 entry or part of it): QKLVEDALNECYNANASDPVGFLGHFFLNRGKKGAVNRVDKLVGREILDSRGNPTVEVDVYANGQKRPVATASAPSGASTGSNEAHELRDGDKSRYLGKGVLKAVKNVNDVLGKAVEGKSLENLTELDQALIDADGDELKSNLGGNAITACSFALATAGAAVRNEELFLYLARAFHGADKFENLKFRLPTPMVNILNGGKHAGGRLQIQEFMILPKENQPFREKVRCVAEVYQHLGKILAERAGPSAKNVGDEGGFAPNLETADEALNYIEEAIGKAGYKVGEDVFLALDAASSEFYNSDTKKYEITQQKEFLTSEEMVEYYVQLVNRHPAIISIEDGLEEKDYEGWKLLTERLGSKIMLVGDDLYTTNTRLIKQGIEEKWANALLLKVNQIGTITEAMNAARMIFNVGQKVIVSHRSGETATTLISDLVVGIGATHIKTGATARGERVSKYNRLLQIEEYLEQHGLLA
Sequence of human ENO2 (gamma-enolase, HsENO2) (P09104 whole entry): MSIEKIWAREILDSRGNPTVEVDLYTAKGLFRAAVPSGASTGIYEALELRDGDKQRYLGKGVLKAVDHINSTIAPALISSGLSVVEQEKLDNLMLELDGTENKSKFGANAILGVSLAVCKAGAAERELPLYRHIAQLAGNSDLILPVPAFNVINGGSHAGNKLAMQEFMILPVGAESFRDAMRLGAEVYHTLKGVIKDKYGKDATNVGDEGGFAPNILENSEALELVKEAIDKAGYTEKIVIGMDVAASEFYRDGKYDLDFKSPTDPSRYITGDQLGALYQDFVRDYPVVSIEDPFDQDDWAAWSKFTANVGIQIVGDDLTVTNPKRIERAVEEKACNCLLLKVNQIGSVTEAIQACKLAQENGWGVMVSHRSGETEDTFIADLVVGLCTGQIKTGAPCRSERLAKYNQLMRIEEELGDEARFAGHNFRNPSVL

In the case of `O=C(O)[C@@H](CO)OP(=O)(O)O` [2-PG, 2-phosphoglycerate], the Km (N. fowleri ENO (NfENO); truncation residues 44–512, NafoA.00379.a.B5.PW38978, read-out: apparent KM for 2-PG) is reported as 923 ± 0.336 µM.

With `O=C1C(P(=O)(O)O)CCCCN1O` (centres unmarked) [HEPTA, (1-hydroxy-2-oxoazepan-3-yl) phosphonic acid] the IC50 (N. fowleri ENO (NfENO)) was 4700 ± 1400 nM, the IC50 [1] was 5800 ± 880 nM and the EC50 [2, 11] was over 10000 nM.

With `O=C1C(P(=O)(O)O)CCCN1OCc1ccccc1` (centres unmarked) [BenzylHEX] the “impact on NfENO” value (N. fowleri ENO (NfENO); at 10 μM) was “no impact”, the IC50 (N. fowleri ENO (NfENO); [12]) was over 10000 nM and the IC50 [1, 13] was over 10000 nM. It also gave an EC50 [2, 11] of over 10000 nM.

For `O=C1C(P(=O)(O)O)CCN1OCc1ccccc1` (centres unmarked) [Benzyl- deoxy- SF2312], the IC50 (N. fowleri ENO (NfENO); [12]) was over 10000 nM, the IC50 [1, 13] was over 10000 nM and the EC50 [2, 11] was over 10000 nM.

`CC(C)OC(=O)[C@H](C)NP(=O)(OCOC(=O)C(C)(C)C)C1CCCN(O)C1=O` (some centres unmarked) [CDP25] showed a CC50 at 48 h [3] of over 5000 nM, an IC50 (N. fowleri ENO (NfENO)) of over 10000 nM and an EC50 [2, 11] of 310 ± 150 nM.

For `O=C1C(P(=O)(O)O)CCCN1O` (centres unmarked) [HEX, (1-hydroxy-2-oxopiperidin-3-yl) phosphonic acid], the EC50 [4] is given as 8060 ± 2600 nM, the CC50 [5] is given as over 300000 nM and the EC50 (ENO1-/- glioma cells) is given as 1300 nM. The plasma elimination half-life [6] was “about 60 minutes”, the intracranial tumor growth [7] was “almost completely inhibited intracranial tumor growth” and the “adverse effects of intranasal instillation” value [8] was “none of the rats had any noticeable reaction to treatment”. The “decrease in pyruvate levels” value (N. fowleri trophozoites) was about 50%, the impact on growth (Entamoeba histolytica) was “no impact” and the IC50 (N. fowleri ENO (NfENO)) was 140 ± 40 nM. For the same compound, the “mode of NfENO inhibition” value (N. fowleri ENO (NfENO)) was “competitive inhibitor”, the CC50 (Human cell line; [14]) was over 300000 nM and the plasma concentrations ([9]; IP 300 mg/kg, for several hours) was “about 750 μM”. For the same compound, the “IP dose tolerated without adverse effects” value ([9]; IP) was 300 mg/kg, the median survival time ([10]; HEX 3 mg/kg nasal instillation for 10 days, >50% of the population survived) was “indeterminable; also recorded: undefined” and the “animals remaining at conclusion of treatment” value ([10]; day 11, HEX 3 mg/kg nasal instillation once a day for 10 days from day 2) was 11 of 12. For the same compound, the “survivors with brains positive for amoebae by culture” value ([10]; of the eight HEX-treated survivors) was “six of the eight and six”, the IC50 [1] was 360 ± 40 nM and the impact on growth (N. gruberi) was “no impact”. For the same compound, the impact on growth (Balamuthia mandrillaris) was “no impact; also recorded: inactive”, the EC50 [2, 11] was 210 ± 20 nM and the EC50 ([2]; ATCC30215, 336 h, read-out: EC50 of trophozoites cultured from brain of HEX-treated rodent) was 90 ± 40 nM. For the same compound, the EC50 ([2]; ATCC30215, 336 h, read-out: EC50 of trophozoites cultured from brain of PBS-treated (Vehicle) rodent) was 100 ± 80 nM, the EC50 ([2]; ATCC30215, 504 h, read-out: EC50 after removal of selection) was 110 ± 10 nM and the EC50 ([2]; ATCC30215, read-out: EC50 in glycerol medium) was 2500 ± 110 nM. It also gave an EC50 ([2]; ATCC30215, read-out: EC50 of HEX-adapted amoebae) of 570 ± 300 nM.

For `O=C1C(P(=O)(O)O)CCN1O` (centres unmarked) [Deoxy-SF2312, (1-hydroxy-2-oxopyrrolidin-3-yl) phosphonic acid], the CC50 at 48 h [3] was over 200000 nM, the IC50 (N. fowleri ENO (NfENO)) was 1200 ± 470 nM and the IC50 [1] was 100 ± 40 nM. For the same compound, the “fold more potent against ENO2 than NfENO” value ([1]; ratio of IC50 values) was “more than 10 fold” and the EC50 [2, 11] was 950 ± 200 nM.

In the case of `CC(C)(C)C(=O)OCOP(=O)(OCOC(=O)C(C)(C)C)C1CCCN(O)C1=O` (centres unmarked) [POMHEX], the IC50 (N. fowleri ENO (NfENO); [12]) is given as over 10000 nM, the CC50 (Human cell line; [14]) is given as over 4900 nM and the IC50 [1, 13] is given as over 10000 nM. It also gave an EC50 [2, 11] of 700 ± 100 nM.

For `CC(C)(C)C(=O)OCOP(=O)(OCOC(=O)C(C)(C)C)C1CC(O)N(O)C1=O` (centres unmarked) [POMSF], the IC50 (N. fowleri ENO (NfENO); [12]) was over 10000 nM, the IC50 [1, 13] was over 10000 nM and the “increase in amoebicidal potency relative to SF2312” value ([2]; EC50 ratio) was “about 2.4 fold”. It also gave an EC50 [2, 11] of 660 ± 90 nM.

For `O=C1C(P(=O)(O)O)CC(O)N1O` (centres unmarked) [SF2312, (1,5-dihydroxy-2-oxopyrrolidin-3-yl) phosphonic acid, reference compound], the IC50 (N. fowleri ENO (NfENO)) is given as 310 ± 70 nM, the CC50 (Human cell line; value with superscript 1 in Fig 1, footnote not given, ref superscript 1) is given as over 200000 nM and the IC50 [1] is given as 630 ± 10 nM. The EC50 [2, 11] was 1600 ± 110 nM.

With `O=C1C(P(=O)(O)O)CCCCN1OCc1ccccc1` (centres unmarked) [Benzyl-HEPTA] the IC50 (N. fowleri ENO (NfENO); [12]) was over 10000 nM, the IC50 [1, 13] was over 10000 nM and the EC50 [2, 11] was over 10000 nM.
